Experimental data from PMC11672637, “7-O-Carboxylic Acid-Substituted 3-O-Alkyl Difluoroquercetin; An Aztreonam-Potentiating Agent Against Carbapenemase-Producing Pseudomonas aeruginosa Through Simultaneous Inhibition of Metallo-β-Lactamase and Efflux Pump” (Antibiotics, 2024).
Values after ≈ are worked out from the molar mass of the structure shown. Where two headings read alike, the source gives them in different places.

Columns and labels:
PA-037, blaIMP/NDM = assay: MIC / checkerboard with ATM; assay type: cell-based, P. aeruginosa; details: Pseudomonas aeruginosa, read-out: MIC of ATM with 5, PA-037
All CPPA (n = 26) = assay: MIC distribution over clinical isolates; assay type: cell-based, P. aeruginosa; details: for inhibition at 1 µg/mL / inhibition at 2 µg/mL / inhibition at 4 µg/mL / inhibition at 8 µg/mL / inhibition at 16 µg/mL / inhibition at 32 µg/mL / inhibition at 64 µg/mL / MIC50 / MIC90: Pseudomonas aeruginosa; for inhibition at 1 µg/mL: read-out: Cumulative % inhibition by ATM, 5 at 1 mg/L; for inhibition at 2 µg/mL: read-out: Cumulative % inhibition by ATM, 5 at 2 mg/L; for inhibition at 4 µg/mL: read-out: Cumulative % inhibition by ATM, 5 at 4 mg/L; for inhibition at 8 µg/mL: read-out: Cumulative % inhibition by ATM, 5 at 8 mg/L; for inhibition at 16 µg/mL: read-out: Cumulative % inhibition by ATM, 5 at 16 mg/L; for inhibition at 32 µg/mL: read-out: Cumulative % inhibition by ATM, 5 at 32 mg/L; for inhibition at 64 µg/mL: read-out: Cumulative % inhibition by ATM, 5 at 64 mg/L
[1] = test system: wild-type P. aeruginosa (ATCC 27853); assay: Time–kill assay; assay type: cell-based; details: for Log CFU/mL, ATM + 5: 24 h
Experimental: Aliquots (50 μL) were taken from the incubation mixture at regular time intervals (t = 0, 3, 6, and 24 h), serially diluted in 0.85% NaCl solution, and plated on BAP. Bacterial colonies were counted, and the data are presented as the means of at least three independent experiments.

In vivo toxicity = details: 6-week-old C57BL/6J female mouse

CC(C)(C)CCOc1c(-c2ccc(F)c(F)c2)oc2cc(OCC(=O)O)cc(O)c2c1=O [Compound 5, 2-((2-(3,4-Difluorophenyl)-3-(3,3-dimethylbutoxy)-5-hydroxy-4-oxo-4H-chromen-7-yl)oxy)acetic Acid]
MIC (PA-037, blaIMP/NDM; 5 at 4 mg/L): 2 µg/mL | MIC (PA-037, blaIMP/NDM; 5 at 8 mg/L): 1 µg/mL | MIC (PA-037, blaIMP/NDM; 5 at 16 mg/L): 1 µg/mL | MIC (PA-037, blaIMP/NDM; 5 at 32 mg/L): 1 µg/mL | MIC (PA-037, blaIMP/NDM; 5 at 64 mg/L): 1 µg/mL | Clinical strains sensitized to ATM (MIC ≤ 8 mg/L) by combination with 5 (All CPPA (n = 26)): 25 out of 26 | CPPA isolates in which ATM/5 combination showed synergistic effects (All CPPA (n = 26); 22 out of 26 isolates): 85% | inhibition at 1 µg/mL (All CPPA (n = 26); ATM 0.5 mg/L): 0% | inhibition at 1 µg/mL (All CPPA (n = 26); ATM 1 mg/L): 4% | inhibition at 1 µg/mL (All CPPA (n = 26); ATM 2 mg/L): 19% | inhibition at 1 µg/mL (All CPPA (n = 26); ATM 4 mg/L): 35% | inhibition at 1 µg/mL (All CPPA (n = 26); ATM 8 mg/L): 46% | inhibition at 1 µg/mL (All CPPA (n = 26); ATM 16 mg/L): 81% | inhibition at 1 µg/mL (All CPPA (n = 26); ATM 32 mg/L): 100% | inhibition at 1 µg/mL (All CPPA (n = 26); ATM 64 mg/L): 100% | inhibition at 2 µg/mL (All CPPA (n = 26); ATM 0.5 mg/L): 4% | inhibition at 2 µg/mL (All CPPA (n = 26); ATM 1 mg/L): 4% | inhibition at 2 µg/mL (All CPPA (n = 26); ATM 2 mg/L): 23% | inhibition at 2 µg/mL (All CPPA (n = 26); ATM 4 mg/L): 38% | inhibition at 2 µg/mL (All CPPA (n = 26); ATM 8 mg/L): 46% | inhibition at 2 µg/mL (All CPPA (n = 26); ATM 16 mg/L): 92% | inhibition at 2 µg/mL (All CPPA (n = 26); ATM 32 mg/L): 100% | inhibition at 2 µg/mL (All CPPA (n = 26); ATM 64 mg/L): 100% | inhibition at 4 µg/mL (All CPPA (n = 26); ATM 0.5 mg/L): 4% | inhibition at 4 µg/mL (All CPPA (n = 26); ATM 1 mg/L): 8% | inhibition at 4 µg/mL (All CPPA (n = 26); ATM 2 mg/L): 31% | inhibition at 4 µg/mL (All CPPA (n = 26); ATM 4 mg/L): 46% | inhibition at 4 µg/mL (All CPPA (n = 26); ATM 8 mg/L): 81% | inhibition at 4 µg/mL (All CPPA (n = 26); ATM 16 mg/L): 100% | inhibition at 4 µg/mL (All CPPA (n = 26); ATM 32 mg/L): 100% | inhibition at 4 µg/mL (All CPPA (n = 26); ATM 64 mg/L): 100% | inhibition at 8 µg/mL (All CPPA (n = 26); ATM 0.5 mg/L): 4% | inhibition at 8 µg/mL (All CPPA (n = 26); ATM 1 mg/L): 19% | inhibition at 8 µg/mL (All CPPA (n = 26); ATM 2 mg/L): 38% | inhibition at 8 µg/mL (All CPPA (n = 26); ATM 4 mg/L): 69% | inhibition at 8 µg/mL (All CPPA (n = 26); ATM 8 mg/L): 88% | inhibition at 8 µg/mL (All CPPA (n = 26); ATM 16 mg/L): 100% | inhibition at 8 µg/mL (All CPPA (n = 26); ATM 32 mg/L): 100% | inhibition at 8 µg/mL (All CPPA (n = 26); ATM 64 mg/L): 100% | inhibition at 16 µg/mL (All CPPA (n = 26); ATM 0.5 mg/L): 4% | inhibition at 16 µg/mL (All CPPA (n = 26); ATM 1 mg/L): 27% | inhibition at 16 µg/mL (All CPPA (n = 26); ATM 2 mg/L): 50% | inhibition at 16 µg/mL (All CPPA (n = 26); ATM 4 mg/L): 81% | inhibition at 16 µg/mL (All CPPA (n = 26); ATM 8 mg/L): 96% | inhibition at 16 µg/mL (All CPPA (n = 26); ATM 16 mg/L): 100% | inhibition at 16 µg/mL (All CPPA (n = 26); ATM 32 mg/L): 100% | inhibition at 16 µg/mL (All CPPA (n = 26); ATM 64 mg/L): 100% | inhibition at 32 µg/mL (All CPPA (n = 26); ATM 0.5 mg/L): 4% | inhibition at 32 µg/mL (All CPPA (n = 26); ATM 1 mg/L): 35% | inhibition at 32 µg/mL (All CPPA (n = 26); ATM 2 mg/L): 54% | inhibition at 32 µg/mL (All CPPA (n = 26); ATM 4 mg/L): 88% | inhibition at 32 µg/mL (All CPPA (n = 26); ATM 8 mg/L): 96% | inhibition at 32 µg/mL (All CPPA (n = 26); ATM 16 mg/L): 100% | inhibition at 32 µg/mL (All CPPA (n = 26); ATM 32 mg/L): 100% | inhibition at 32 µg/mL (All CPPA (n = 26); ATM 64 mg/L): 100% | inhibition at 64 µg/mL (All CPPA (n = 26); ATM 0.5 mg/L): 4% | inhibition at 64 µg/mL (All CPPA (n = 26); ATM 1 mg/L): 38% | inhibition at 64 µg/mL (All CPPA (n = 26); ATM 2 mg/L): 58% | inhibition at 64 µg/mL (All CPPA (n = 26); ATM 4 mg/L): 92% | inhibition at 64 µg/mL (All CPPA (n = 26); ATM 8 mg/L): 96% | inhibition at 64 µg/mL (All CPPA (n = 26); ATM 16 mg/L): 100% | inhibition at 64 µg/mL (All CPPA (n = 26); ATM 32 mg/L): 100% | inhibition at 64 µg/mL (All CPPA (n = 26); ATM 64 mg/L): 100% | MIC50 (All CPPA (n = 26); read-out: MIC50 of ATM, 5 at 1 mg/L): 16 µg/mL (≈ 35.7 µM) | MIC50 (All CPPA (n = 26); read-out: MIC50 of ATM, 5 at 2 mg/L): 16 µg/mL (≈ 35.7 µM) | MIC50 (All CPPA (n = 26); read-out: MIC50 of ATM, 5 at 4 mg/L): 8 µg/mL (≈ 17.8 µM) | MIC50 (All CPPA (n = 26); read-out: MIC50 of ATM, 5 at 8 mg/L): 4 µg/mL (≈ 8.92 µM) | MIC50 (All CPPA (n = 26); read-out: MIC50 of ATM, 5 at 16 mg/L): 4 µg/mL (≈ 8.92 µM) | MIC50 (All CPPA (n = 26); read-out: MIC50 of ATM, 5 at 32 mg/L): 2 µg/mL (≈ 4.46 µM) | MIC50 (All CPPA (n = 26); read-out: MIC50 of ATM, 5 at 64 mg/L): 2 µg/mL (≈ 4.46 µM) | MIC90 (All CPPA (n = 26); read-out: MIC90 of ATM, 5 at 1 mg/L): 32 µg/mL (≈ 71.4 µM) | MIC90 (All CPPA (n = 26); read-out: MIC90 of ATM, 5 at 2 mg/L): 32 µg/mL (≈ 71.4 µM) | MIC90 (All CPPA (n = 26); read-out: MIC90 of ATM, 5 at 4 mg/L): 16 µg/mL (≈ 35.7 µM) | MIC90 (All CPPA (n = 26); read-out: MIC90 of ATM, 5 at 8 mg/L): 16 µg/mL (≈ 35.7 µM) | MIC90 (All CPPA (n = 26); read-out: MIC90 of ATM, 5 at 16 mg/L): 8 µg/mL (≈ 17.8 µM) | MIC90 (All CPPA (n = 26); read-out: MIC90 of ATM, 5 at 32 mg/L): 8 µg/mL (≈ 17.8 µM) | MIC90 (All CPPA (n = 26); read-out: MIC90 of ATM, 5 at 64 mg/L): 8 µg/mL (≈ 17.8 µM) | Diff. (ATM + 5, 24 h vs initial inoculum) ([1]; ATM 1/2 MIC + 5 at 8 mg/L): −0.04 Log CFU/mL | Diff. (ATM + 5 vs ATM only) ([1]; ATM 1/2 MIC + 5 at 8 mg/L): −3.51 Log CFU/mL | Synergistic activity, interpretation ([1]; ATM 1/2 MIC + 5 at 8 mg/L): Synergy (a ≥ 2 log10 decrease in CFU/mL for the combination of ATM and 5 compared to ATM alone after 24 h of incubation) | Log CFU/mL, ATM + 5 ([1]; ATM 1/2 MIC + 5 at 8 mg/L): 5.80 Log CFU/mL | Diff. (ATM + 5, 24 h vs initial inoculum) ([1]; ATM 1/4 MIC + 5 at 8 mg/L): −0.04 Log CFU/mL | Diff. (ATM + 5 vs ATM only) ([1]; ATM 1/4 MIC + 5 at 8 mg/L): −3.77 Log CFU/mL | Synergistic activity, interpretation ([1]; ATM 1/4 MIC + 5 at 8 mg/L): Synergy (a ≥ 2 log10 decrease in CFU/mL for the combination of ATM and 5 compared to ATM alone after 24 h of incubation) | Log CFU/mL, ATM + 5 ([1]; ATM 1/4 MIC + 5 at 8 mg/L): 5.80 Log CFU/mL | Diff. (ATM + 5, 24 h vs initial inoculum) ([1]; ATM 1 MIC + 5 at 8 mg/L): −5.57 Log CFU/mL | Diff. (ATM + 5 vs ATM only) ([1]; ATM 1 MIC + 5 at 8 mg/L): −7.75 Log CFU/mL | Synergistic activity, interpretation ([1]; ATM 1 MIC + 5 at 8 mg/L): Synergy (a ≥ 2 log10 decrease in CFU/mL for the combination of ATM and 5 compared to ATM alone after 24 h of incubation) | Log CFU/mL, ATM + 5 ([1]; ATM 1 MIC + 5 at 8 mg/L): 0.27 Log CFU/mL | Diff. (ATM + 5, 24 h vs initial inoculum) ([1]; ATM 2 MIC + 5 at 8 mg/L): −5.84 Log CFU/mL | Diff. (ATM + 5 vs ATM only) ([1]; ATM 2 MIC + 5 at 8 mg/L): −0.17 Log CFU/mL | Log CFU/mL, ATM + 5 ([1]; ATM 2 MIC + 5 at 8 mg/L): 0.00 Log CFU/mL | Dose up to which no toxicity was shown (In vivo toxicity): ≥ 40 mg/kg
